The nature of assay [1]: DPPH radical scavenging activity assay. It is filed as biochemical. The following applies: for DPPH Clearance rate: n = 3. From the text:
2,2-Diphenyl-1-picryl hydrazyl (DPPH) is an organic compound composed of a stable organic radical. In the DPPH molecule, due to the presence of multiple electron-withdrawing —NO2 and large π bonds of the benzene ring, nitrogen free radical is stabilized. Its methanol solution is purple and has a maximum absorption peak at 517 nm. After the addition of an antioxidant, DPPH captures an electron to be paired with the free electron, and the purple fades and turns into a yellow substance. The absorption at 517 nm disappears, and the degree of fading is quantitatively related to the number of electrons it captures. Based on this principle, a spectrophotometer is used to detect the change of the absorbance of the DPPH radical and the sample solution, and the ability of the sample to provide hydrogen atoms and scavenge free radicals can be measured.
Preparation of DPPH solution: measuring exact amount of 2,2-diphenyl-1-picryl hydrazyl (DPPH) and dissolving in toluene to prepare a 0.2 mmol/L DPPH solution, stored at 0° C. in dark.
Preparation of test solution: Vc (vitamin C, positive control), compound of formula (I) (sample), silibinin (control) and 3,3′-thiodipropionic acid (control). The sample solution was subjected to gradient dilution with toluene, and three sets of controls were separately dissolved in a test tube with a certain amount of toluene to prepare the same concentration gradient as the sample.
Sample liquid absorbance measurement: Take 2 mL of sample solution (Table 2 Vc, B, C), add 2 mL of DPPH solution with concentration of 2×10^−4 mol/L, mix and react in the dark at room temperature for 30 min, adjust to zero with toluene, and measure at 517 nm. The absorbance Ai was simultaneously measured for the absorbance Aj of 2 mL of toluene mixed with 2 mL of the sample solution and the absorbance Ao of 2 mL of DPPH solution mixed with 2 mL of toluene (the experimental results are shown in Table 3).
Clearance calculation: clearance rate (%)=[1−(Ai−Aj)/Ao]*100%
For orientation: Loss of DPPH colour is used to gauge radical scavenging.

Assay [2] relates to Mice with Alcoholic Liver Injury. Put plainly: Protective effect on alcoholic liver injury in mice (serum ALT, AST, TG). The note with it: ethanol 3 g/kg/day, after 25 days. It is filed as in vivo. Here is the method: The compound of formula (I) was prepared by the method of Example 7. In order to study its protective effect on alcoholic liver injury in mice, the following animal model was designed.
Three-week-old 30-35 g SPF male mice were randomly divided into normal control group, model group, low-dose group, high-dose group and tiopronin positive control group after adaptive feeding for 3 days. The normal control group and model group were fed with basic feed every day; low dose group and high dose group were fed with basic diet every day and were given the compound of formula (I) of 10 mg/kg/day and 50 mg/kg/day, respectively; tiopronin positive control group was fed with basic feed and 50 mg/kg/day tiopronin. Ethanol 3 g/kg/day (0.01 mL/g) was given to the model group, low dose group, high dose group and tiopronin positive control group. The normal control group was given distilled water of the same volume. After 25 days, fasting for 2 hours after the last administration, glutamic pyruvic transaminase (ALT), glutamic oxaloacetic transaminase (AST) and triglyceride (TG) were measured in serum by decapitation.

With `COc1cc(C2Oc3cc([C@H]4Oc5cc(O)cc(O)c5C(=O)[C@@H]4O)ccc3OC2CO)ccc1O` (stereo partly shown) [B, Silibinin], the “DPPH Clearance rate” value is on record as 8.42% in assay [1] (1.76 ppm); 9.16% in assay [1] (8.80 ppm); 22.43% in assay [1] (21.12 ppm); 27.10% in assay [1] (42.24 ppm); 39.53% in assay [1] (79.20 ppm); 45.87% in assay [1] (112.64 ppm). Moreover, the “DPPH Clearance rate” value in assay [1] (281.60 ppm) amounted to 60.25%; in assay [1] (492.80 ppm), 65.88%; in assay [1] (792.00 ppm), 69.85%; in assay [1] (915.20 ppm), 72.76%.
Regarding `O=C(O)CCSCCC(=O)O` [C, 3,3′-Thiodipropionic acid], the “DPPH Clearance rate” value is reported as 6.85% in assay [1] (1.76 ppm); 8.38% in assay [1] (8.80 ppm); 17.13% in assay [1] (21.12 ppm); 22.38% in assay [1] (42.24 ppm); 39.55% in assay [1] (79.20 ppm); 43.58% in assay [1] (112.64 ppm). The “DPPH Clearance rate” value in assay [1] (281.60 ppm) is 52.23%; in assay [1] (492.80 ppm) it was 59.36%; in assay [1] (792.00 ppm), 64.55%; in assay [1] (915.20 ppm), 68.22%.
As to `COc1cc(C2Oc3cc([C@H]4Oc5cc(O)cc(O)c5C(=O)[C@@H]4O)ccc3OC2COC(=O)CCSCCC(=O)OCC2Oc3ccc([C@H]4Oc5cc(O)cc(O)c5C(=O)[C@@H]4O)cc3OC2c2ccc(O)c(OC)c2)ccc1O` (stereo partly drawn) [Compound of Formula (I), bis((3-(4-hydroxy-3-methoxyphenyl)-6-((2R,3R)-3,5,7-trihydroxy-4-oxochroman-2-yl)-2,3-dihydrobenzo[b][1,4]dioxin-2-yl)methyl) 3,3′-thiodipropionate], the ALT in assay [2] (10 mg/kg/day) came out at 60.88 ± 9.75 U/L; in assay [2] (50 mg/kg/day), 56.17 ± 3.45 U/L. The figures for the AST in assay [2] (10 mg/kg/day) and in assay [2] (50 mg/kg/day) were 138.53 ± 17.85 U/L and 132.56 ± 7.21 U/L, respectively. Also, the TG in assay [2] (10 mg/kg/day) turned out to be 0.973 ± 0.25 mmol/L; in assay [2] (50 mg/kg/day), 0.877 ± 0.36 mmol/L. The “scavenging ability compared with the positive control Vc group” value in assay [1] is recorded as “slightly weaker”. Besides, the “DPPH Clearance rate” value is given as 13.11% in assay [1] (1.76 ppm); 20.80% in assay [1] (8.80 ppm); 34.16% in assay [1] (21.12 ppm); 44.12% in assay [1] (42.24 ppm); 68.42% in assay [1] (79.20 ppm); 75.23% in assay [1] (112.64 ppm). Moreover, the “DPPH Clearance rate” value is 81.21% in assay [1] (281.60 ppm), 84.70% in assay [1] (492.80 ppm), 87.06% in assay [1] (792.00 ppm) and 89.96% in assay [1] (915.20 ppm). The “scavenging ability to scavenge DPPH free radicals compared with silibinin (B) and 3,3′-thiodipropionic acid (C) alone” value in assay [1] (at the same concentration) is “better”. The “highest scavenging rate of DPPH radical” value in assay [1] (in the determined concentration range) turned out to be 89.96%.
Take `CC(S)C(=O)NCC(=O)O` (stereo not shown) [Tiopronin, tiopronin]: in assay [2] (50 mg/kg/day), the ALT is 63.45 ± 9.53 U/L, the AST worked out at 143.32 ± 15.46 U/L and the TG was 1.336 ± 0.62 mmol/L.
As for `O=C1O[C@H]([C@@H](O)CO)C(O)=C1O` [Vc, vitamin C], the “DPPH Clearance rate” value in assay [1] (1.76 ppm) amounted to 23.16%; in assay [1] (8.80 ppm), 33.47%; in assay [1] (21.12 ppm), 79.63%; in assay [1] (42.24 ppm) it was 89.55%; in assay [1] (79.20 ppm), 97.42%; in assay [1] (112.64 ppm) it was 97.53%. Moreover, the “DPPH Clearance rate” value in assay [1] (281.60 ppm) turned out to be 98.29%; in assay [1] (492.80 ppm), 99.06%; in assay [1] (792.00 ppm), 99.10%; in assay [1] (915.20 ppm) it was 99.28%.

The record behind these values is patent US10766885B1, “Silibinin 3,3′-thiodipropionic acid ester with hepatoprotective activity and a method of preparing the same” (SHAANXI UNIVERSITY OF SCIENCE AND TECHNOLOGY, priority 2020, dated 2020).
